Patent US11242334B2, “Heterocyclic compounds as kinase inhibitors, compositions comprising the heterocyclic compound, and methods of use thereof” (JS INNOPHARM (SHANGHAI) LTD, priority 2017, dated 2022)

Tests used:
human ERK2 = target: T1, human ERK2 (Homo sapiens, UniProt P28482); assay: LanthaScreen TR-FRET enzymatic assay, ERK2; settings: IC50 values of ERK2 biochemical activity; 5 μM ATP, 400 nM ATF2-GFP substrate
T1 construct: recombinantly expressed as GST-tagged full-length protein purified from E. coli; GST; purchased Invitrogen PV3311; host or cells: E. coli
T1 sequence (P28482 whole entry): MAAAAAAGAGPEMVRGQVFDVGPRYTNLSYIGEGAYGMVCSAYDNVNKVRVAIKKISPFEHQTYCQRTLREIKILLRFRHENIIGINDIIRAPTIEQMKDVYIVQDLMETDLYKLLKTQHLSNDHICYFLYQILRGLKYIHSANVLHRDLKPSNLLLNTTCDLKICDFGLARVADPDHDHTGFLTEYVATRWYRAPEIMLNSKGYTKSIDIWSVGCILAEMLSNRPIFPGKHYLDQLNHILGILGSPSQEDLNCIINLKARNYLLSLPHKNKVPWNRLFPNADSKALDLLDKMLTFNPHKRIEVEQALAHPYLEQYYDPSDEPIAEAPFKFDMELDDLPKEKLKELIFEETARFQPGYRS
Description: Compounds were tested in a LanthaScreen™ time-resolved fluorescence energy transfer (TR-FRET) enzymatic assay from Invitrogen. The assay used human ERK2 (Mitogen Activated Kinase 1, Invitrogen, Cat. PV3311) recombinantly expressed as GST-tagged full-length protein purified from E. coli and activated in vitro with MAP2K1. The substrate was a recombinant truncated version (residues 19-96) of ATF2 fused with Green Fluorescent Protein (Invitrogen, Cat. PV4445). Test compounds were prepared and diluted in DMSO in 3-fold serial dilutions to 100× of the final testing concentrations. The compounds were then further diluted to 4× by the kinase reaction buffer (Invitrogen, Cat. PV3189). The enzymatic reaction for compound testing was performed in a white 384-well polypropylene plate (Packard, Cat. 6005214) with a total reaction volume of 10 μl containing 20 ng/ml ERK2, 400 nM substrate, and 5 μM ATP that is around its Km. The assay started with loading 2.5 μl of ERK2 diluted in kinase reaction buffer to wells, followed by addition of equal volume of 4× compounds for 15-min incubation at the room temperature for pre-treatment. The enzymatic reaction was initiated by addition of 5 μl of mixture of the substrate and ATP prepared in kinase reaction buffer. After one hour reaction, 10 μl mixture of EDTA (final 10 mM) and terbium-labeled anti-pATF2 (pThr71) antibody (final 2 nM) (Invitrogen, Cat. PV4451) prepared in TR-FRET antibody dilution buffer (Invitrogen, Cat. PV3574) was added to stop the enzymatic reaction and produce TR-FRET signals. After 30 minutes of incubation at room temperature, the plate was read in Tecan Infinite F200 Pro with the following settings: Excitation 340 nm (30)/Emission1 495 nm (10)/Emission2 520 nm (25). The TR-FRET values were dimensionless numbers that were calculated as the ratio of the acceptor ([…]) signal to the donor (Terbium) signal. Percent of control was calculated as the percentage of compound-treated vs 1% DMSO vehicle-treated. The dose-response curves were generated and the ICsos were calculated by nonlinear sigmoid curve fitting using GraphPad Prism.
The IC50 values of ERK2 biochemical activity for the examples disclosed herein are listed in Table 3, A: ≤10 nM; B: >10 nM and ≤50 nM; C: >50 nM and ≤100 nM; D.>100 nM.

Colo205 cell line = assay: Colo205 cell proliferation assay (MTT assay, WST-8 readout); assay type: cell-based; settings: Homo sapiens; IC50 values of growth inhibition in Colo 205 cells; 72 hours
Description: Compounds disclosed herein were tested for the inhibition of ERK2 by a Colo205 cell proliferation assay commonly known as MTT assay. In this assay, a complete media was prepared by adding 10% fetal bovine serum to RPMI-1640 medium (Life technology). Colon cancer cells (Colo205 cell line) were added to each of 88 wells of a 96 well plate at a seeding density of 5,000 cells/well/90 μL. The cells were allowed to attach to the plate by incubating at 37° C. for 24 hours. The compound was dissolved in DMSO (SIGMA). A solution of test compound was prepared in complete media by serial dilution to obtain the following concentrations: 500 μM, 150 μM, 50 μM, 15 μM, 5 μM, 1.5 μM, 0.5 μM, 0.15 μM and 0.05 μM. The test compound solution (10 μL) was added to each of 80 cell-containing wells. The final concentrations of the compound were following: 50 μM, 15 μM, 5 μM, 1.5 μM, 0.5 μM, 0.15 μM, 0.05 μM, 0.015 μM and 0.005 μM. The final concentration of DMSO is 0.5%. To the 8 remaining cell-containing wells, only complete media (containing 0.5% DMSO) was added to form a control group in order to measure maximal proliferation. To the remaining 8 empty wells, complete media was added to for a vehicle control group in order to measure background. The plates were incubated at 37° C. for 72 hours. 10 μL WST-8 solution (DOJINDO, Cell Counting KIT-8) was added to each well. The plates were further incubated at 37° C. for 2 hours, and then read for the absorbance using a microplate reader at 450 nm.
The IC50 values of growth inhibition in Colo 205 cells for Compounds disclosed are listed in Table 3, A′: ≤0.5 μM; B′: >0.5 μM and ≤1 μM; C′: >1.0 μM and ≤5 uM; D′: >5 μM.

SMILES | IC50 (human ERK2) [µM] | IC50 (Colo205 cell line) [µM]
C[C@@H](c1cc(F)cc(Br)c1)n1ccc(-c2ccc3[nH]nc(-c4cnn(C)c4)c3c2)cc1=O (single isomer, unassigned) [Example 96A] | < 0.01 | 1 to 5
C[C@H](c1cc(F)cc(Br)c1)n1ccc(-c2ccc3[nH]nc(-c4cnn(C)c4)c3c2)cc1=O (single isomer, unassigned) [Example 96B] | < 0.01 | ≤ 0.5
Cc1cc(-c2n[nH]c3ccc(-c4ccn([C@H](CO)c5cccc(Cl)c5)c(=O)c4)cc23)ccn1 [Example 1, (S)-1-(1-(3-chlorophenyl)-2-hydroxyethyl)-4-(3-(2-methyl-pyridin-4-yl)-1H-indazol-5-yl)pyridin-2(1H)-one] | < 0.01 | ≤ 0.5
O=c1cc(-c2ccc3[nH]nc(C4CCOCC4)c3c2)ccn1[C@H](CO)c1cccc(Cl)c1 [Example 2, (S)-1-(1-(3-chlorophenyl)-2-hydroxyethyl)-4-(3-(tetrahydro-2H-pyran-4-yl)-1H-indazol-5-yl)pyridin-2(1H)-one] | < 0.01 | 0.5 to 1
Cc1n[nH]c2ccc(-c3ccn([C@H](CO)c4cccc(Cl)c4)c(=O)c3)cc12 [Example 3, (S)-1-(1-(3-chlorophenyl)-2-hydroxyethyl)-4-(3-methyl-1H-indazol-5-yl)pyridin-2(1H)-one] | 0.01 to 0.05 | 1 to 5
Cc1cc(-c2n[nH]c3ncc(-c4ccn([C@H](CO)c5cccc(Cl)c5)c(=O)c4)cc23)ccn1 [Example 4, (S)-1-(1-(3-chlorophenyl)-2-hydroxyethyl)-4-(3-(2-methylpyridin-4-yl)-1H-pyrazolo[3,4-b]pyridin-5-yl)pyridin-2(1H)-one] | < 0.01 | 0.5 to 1
CNc1n[nH]c2ccc(-c3ccn([C@H](CO)c4cccc(Cl)c4)c(=O)c3)cc12 [Example 5, (S)-1-(1-(3-chlorophenyl)-2-hydroxyethyl)-4-(3-(methyl-amino)-1H-indazol-5-yl)pyridin-2(1H)-one] | 0.01 to 0.05 | 1 to 5
Cc1cc(-c2n[nH]c3ccc(-c4ccn([C@H](CO)c5cccc(Br)c5)c(=O)c4)cc23)ccn1 [Example 6, (S)-1-(1-(3-bromophenyl)-2-hydroxyethyl)-4-(3-(2-methyl-pyridin-4-yl)-1H-indazol-5-yl)pyridin-2(1H)-one] | < 0.01 | ≤ 0.5
Cn1nccc1-c1n[nH]c2ccc(-c3ccn([C@H](CO)c4cccc(Cl)c4)c(=O)c3)cc12 [Example 7, (S)-1-(1-(3-chlorophenyl)-2-hydroxyethyl)-4-(3-(1-methyl-1H-pyrazol-5-yl)-1H-indazol-5-yl)pyridin-2(1H)-one] | 0.01 to 0.05 | 1 to 5
Cc1cc(-c2n[nH]c3ccc(-c4ccn(Cc5cc(F)cc(Br)c5)c(=O)c4)cc23)ccn1 [Example 8, 1-(3-bromo-5-fluorobenzyl)-4-(3-(2-methylpyridin-4-yl)-1H-indazol-5-yl)pyridin-2(1H)-one] | < 0.01 | 0.5 to 1
Cc1cc(-c2n[nH]c3ccc(-c4ccn([C@H](CO)c5cccc(Cl)c5)c(=O)c4)nc23)ccn1 [Example 9, (S)-1-(1-(3-chlorophenyl)-2-hydroxyethyl)-4-(3-(2-methyl-pyridin-4-yl)-1H-pyrazolo[4,3-b]pyridin-5-yl)pyridin-2(1H)-one] | < 0.01 | 0.5 to 1
CC(C)Oc1cc(-c2n[nH]c3ccc(-c4ccn(Cc5cc(F)cc(Br)c5)c(=O)c4)cc23)ccn1 [Example 10, 1-(3-bromo-5-fluorobenzyl)-4-(3-(2-isopropoxypyridin-4-yl)-1H-indazol-5-yl)pyridin-2(1H)-one] | 0.01 to 0.05 | > 5
Nc1n[nH]c2ccc(-c3ccn([C@H](CO)c4cccc(Cl)c4)c(=O)c3)cc12 [Example 11, (S)-4-(3-amino-1H-indazol-5-yl)-1-(1-(3-chlorophenyl)-2-hydroxyethyl)pyridin-2(1H)-one] | 0.01 to 0.05 | > 5
Cn1nccc1Nc1n[nH]c2ccc(-c3ccn([C@H](CO)c4cccc(Cl)c4)c(=O)c3)cc12 [Example 12, (S)-1-(1-(3-chlorophenyl)-2-hydroxyethyl)-4-(3-((1-methyl-1H-pyrazol-5-yl)amino)-1H-indazol-5-yl)pyridin-2(1H)-one] | 0.01 to 0.05 | 1 to 5
Cc1cc(-c2n[nH]c3ccc(-c4ccn([C@H](CO)c5cccc(Cl)c5)c(=O)c4)c(F)c23)ccn1 [Example 13, (S)-1-(1-(3-chlorophenyl)-2-hydroxyethyl)-4-(4-fluoro-3-(2-methylpyridin-4-yl)-1H-indazol-5-yl)pyridin-2(1H)-one] | < 0.01 | 0.5 to 1
Cc1cc(-c2n[nH]c3cc(F)c(-c4ccn([C@H](CO)c5cccc(Cl)c5)c(=O)c4)cc23)ccn1 [Example 14, (S)-1-(1-(3-chlorophenyl)-2-hydroxyethyl)-4-(6-fluoro-3-(2-methylpyridin-4-yl)-1H-indazol-5-yl)pyridin-2(1H)-one] | 0.01 to 0.05 | 1 to 5
Cc1cc(-c2n[nH]c3ccc(-c4ccn([C@H](CO)c5ccc(Cl)c(F)c5)c(=O)c4)cc23)ccn1 [Example 15, (S)-1-(1-(4-chloro-3-fluorophenyl)-2-hydroxyethyl)-4-(3-(2-methylpyridin-4-yl)-1H-indazol-5-yl)pyridin-2(1H)-one] | < 0.01 | ≤ 0.5
Cc1nn(C)cc1-c1n[nH]c2ccc(-c3ccn([C@H](CO)c4cccc(Cl)c4)c(=O)c3)cc12 [Example 16, (S)-1-(1-(3-chlorophenyl)-2-hydroxyethyl)-4-(3-(1,3-dimethyl-1H-pyrazol-4-yl)-1H-indazol-5-yl)pyridin-2(1H)-one] | < 0.01 | 0.5 to 1
CC(C)Oc1ccc(-c2n[nH]c3ccc(-c4ccn([C@H](CO)c5cccc(Cl)c5)c(=O)c4)cc23)cn1 [Example 17, (S)-1-(1-(3-chlorophenyl)-2-hydroxyethyl)-4-(3-(6-isopropoxypyridin-3-yl)-1H-indazol-5-yl)pyridin-2(1H)-one] | < 0.01 | 0.5 to 1
Cn1cc(-c2n[nH]c3ccc(-c4ccn([C@H](CO)c5cccc(Cl)c5)c(=O)c4)cc23)cn1 [Example 18, (S)-1-(1-(3-chlorophenyl)-2-hydroxyethyl)-4-(3-(1-methyl-1H-pyrazol-4-yl)-1H-indazol-5-yl)pyridin-2(1H)-one] | < 0.01 | ≤ 0.5
CC(C)Oc1cc(-c2n[nH]c3ccc(-c4ccn([C@H](CO)c5cccc(Cl)c5)c(=O)c4)cc23)ccn1 [Example 19, (S)-1-(1-(3-chlorophenyl)-2-hydroxyethyl)-4-(3-(2-isopropoxypyridin-4-yl)-1H-indazol-5-yl)pyridin-2(1H)-one] | < 0.01 | 1 to 5
CC(C)(O)c1ccc(-c2n[nH]c3ccc(-c4ccn([C@H](CO)c5ccc(F)c(Cl)c5)c(=O)c4)cc23)cn1 [Example 20, (S)-1-(1-(3-chloro-4-fluorophenyl)-2-hydroxyethyl)-4-(3-(6-(2-hydroxypropan-2-yl)pyridin-3-yl)-1H-indazol-5-yl)pyridin-2(1H)-one] | 0.01 to 0.05 | 1 to 5
CC(C)(O)c1cc(-c2n[nH]c3ccc(-c4ccn([C@H](CO)c5ccc(F)c(Cl)c5)c(=O)c4)cc23)ccn1 [Example 21] | < 0.01 | 1 to 5
